The subject of the data set is CCRIS mutagenicity, Ames/micronucleus/aberration tests. The data set is described as follows: CCRIS mutagenicity studies.
Where [1] appears, read: Test System: AMES SALMONELLA TYPHIMURIUM, Strain/Indicator: TA98, Metabolic Activation: NONE, Method: STANDARD PLATE.
The mark [2] stands for this setting: Test System: AMES SALMONELLA TYPHIMURIUM, Strain/Indicator: TA98, Metabolic Activation: S-9, Method: STANDARD PLATE.
Setting [3] is: Test System: AMES SALMONELLA TYPHIMURIUM, Strain/Indicator: TA100, Metabolic Activation: NONE, Method: STANDARD PLATE.
The mark [4] stands for this setting: Test System: AMES SALMONELLA TYPHIMURIUM, Strain/Indicator: TA100, Metabolic Activation: S-9, Method: STANDARD PLATE.
Where [5] appears, read: Test System: AMES SALMONELLA TYPHIMURIUM, Strain/Indicator: TA98, Metabolic Activation: RAT, LIVER, S-9, AROCLOR 1254, Method: STANDARD PLATE.
The mark [6] stands for this setting: Test System: AMES SALMONELLA TYPHIMURIUM, Strain/Indicator: TA100, Metabolic Activation: RAT, LIVER, S-9, AROCLOR 1254, Method: STANDARD PLATE.

Molecules are shown by their SMILES. Active and inactive are the calls of the source. The rule behind the calls is not given here.

Take `CCN(CC)S(=O)(=O)c1ccc(NC(C)=O)cc1`: the mutagenic call (Test System: AMES SALMONELLA TYPHIMURIUM, Strain/Indicator: TA98, Metabolic Activation: NONE, Method: PREINCUBATION) is “inactive; negative”; the mutagenic call (Test System: AMES SALMONELLA TYPHIMURIUM, Strain/Indicator: TA98, Metabolic Activation: RAT, LIVER, S-9, AROCLOR 1254, Method: PREINCUBATION) was “inactive; negative”; the mutagenic call (Test System: AMES SALMONELLA TYPHIMURIUM, Strain/Indicator: TA100, Metabolic Activation: NONE, Method: PREINCUBATION) is “inactive; negative”; the mutagenic call (Test System: AMES SALMONELLA TYPHIMURIUM, Strain/Indicator: TA100, Metabolic Activation: RAT, LIVER, S-9, AROCLOR 1254, Method: PREINCUBATION) was “inactive; negative”.
For `O=C1CCCc2c1ccc1c([N+](=O)[O-])c3ccccc3cc21`, the mutagenic call reads like this: (Test System: AMES SALMONELLA TYPHIMURIUM, Strain/Indicator: TA98, Metabolic Activation: NONE) “inactive; negative”; (Test System: AMES SALMONELLA TYPHIMURIUM, Strain/Indicator: TA98, Metabolic Activation: S-9) “inactive; negative”; (Test System: AMES SALMONELLA TYPHIMURIUM, Strain/Indicator: TA100, Metabolic Activation: NONE) “inactive; negative”; (Test System: AMES SALMONELLA TYPHIMURIUM, Strain/Indicator: TA100, Metabolic Activation: S-9) “inactive; negative”.
In the case of `O=Cc1ccc(CO)o1`, the mutagenic call is, setting by setting: (End Point: In vivo micronucleus, Test System: Peripheral blood normochromatic erythrocytes, Species: Mouse, Strain/Sex: B6C3F1/Female, Route: Oral) “inactive; negative”; (End Point: In vivo micronucleus, Test System: Peripheral blood normochromatic erythrocytes, Species: Mouse, Strain/Sex: B6C3F1/Male, Route: Oral) “inactive; negative”; under setting [1], “inactive; negative”; under setting [2], “active; positive”; under setting [3], “inactive; negative”; under setting [4], “active; positive”. Besides, the mutagenic call by setting is: (Test System: AMES SALMONELLA TYPHIMURIUM, Strain/Indicator: TA104, Metabolic Activation: NONE, Method: PREINCUBATION) “inactive; negative”; (Test System: Ames Salmonella typhimurium, Strain/Indicator: TA97, Metabolic Activation: Hamster, Liver, S-9, Aroclor 1254 (10 and 30%), Method: Preincubation) “inactive; negative”; (Test System: Ames Salmonella typhimurium, Strain/Indicator: TA97, Metabolic Activation: None, Method: Preincubation) “inactive; negative”; (Test System: Ames Salmonella typhimurium, Strain/Indicator: TA97, Metabolic Activation: Rat, Liver, S-9, Aroclor 1254 (10 and 30%), Method: Preincubation) “inactive; negative”; (Test System: Ames Salmonella typhimurium, Strain/Indicator: TA98, Metabolic Activation: Hamster, Liver, S-9, Aroclor 1254 (10 and 30%), Method: Preincubation) “inactive; negative”; (Test System: Ames Salmonella typhimurium, Strain/Indicator: TA98, Metabolic Activation: None, Method: Preincubation) “inactive; negative”. Moreover, the mutagenic call runs as follows: (Test System: Ames Salmonella typhimurium, Strain/Indicator: TA98, Metabolic Activation: Rat, Liver, S-9, Aroclor 1254 (10 and 30%), Method: Preincubation) “inactive; negative”; (Test System: Ames Salmonella typhimurium, Strain/Indicator: TA98, Metabolic Activation: Rat, Liver, S-9, Aroclor 1254,10%, Method: Preincubation) “inactive; negative”; (Test System: Ames Salmonella typhimurium, Strain/Indicator: TA100, Metabolic Activation: Hamster, Liver, S-9, Aroclor 1254 (10 and 30%), Method: Preincubation) “inactive; negative”; (Test System: Ames Salmonella typhimurium, Strain/Indicator: TA100, Metabolic Activation: Rat, Liver, S-9, Aroclor 1254 (10 and 30%), Method: Preincubation) “inactive; negative”; (Test System: Ames Salmonella typhimurium, Strain/Indicator: TA100, Metabolic Activation: Rat, Liver, S-9, Aroclor 1254,10%, Method: Preincubation) “inactive; negative”; (Test System: Ames Salmonella typhimurium, Strain/Indicator: TA102, Metabolic Activation: Hamster, Liver, S-9, Aroclor 1254 (10 and 30%), Method: Preincubation) “inactive; negative”. Moreover, the mutagenic call (Test System: Ames Salmonella typhimurium, Strain/Indicator: TA102, Metabolic Activation: None, Method: Preincubation) is “inactive; negative”; the mutagenic call (Test System: Ames Salmonella typhimurium, Strain/Indicator: TA102, Metabolic Activation: Rat, Liver, S-9, Aroclor 1254 (10 and 30%), Method: Preincubation) is “inactive; negative”; the mutagenic call (Test System: Ames Salmonella typhimurium, Strain/Indicator: TA1535, Metabolic Activation: None, Method: Preincubation) was “inactive; negative”; the mutagenic call (Test System: CHINESE HAMSTER V-79, Strain/Indicator: V-79 (HPRT)/6-THIOGUANINE, Metabolic Activation: NONE, Method: STANDARD PLATE) is “active; positive”; the mutagenic call (Test System: E. coli, Strain/Indicator: WP2 uvrA/pKM101, Metabolic Activation: None, Method: Preincubation) was “inactive; negative”; the mutagenic call (Test System: E. coli, Strain/Indicator: WP2 uvrA/pKM101, Metabolic Activation: Rat, Liver, S-9, Aroclor 1254 (10%), Method: Preincubation) is “inactive; negative”.
Take `CS(=O)(=O)OCCCCOS(C)(=O)=O`: the mutagenic call is, setting by setting: under setting [1], “inactive; negative”; under setting [2], “inactive; negative”; under setting [3], “inactive; negative”; under setting [4], “active; positive”; (Test System: AMES SALMONELLA TYPHIMURIUM, Strain/Indicator: TA1537, Metabolic Activation: S-9, Method: STANDARD PLATE) “inactive; negative”; (Test System: E. COLI, Strain/Indicator: WP2 (HCR), Metabolic Activation: NONE, Method: STANDARD PLATE) “inactive; negative”. In addition, the mutagenic call is, setting by setting: (Test System: E. COLI, Strain/Indicator: WP2 (HCR), Metabolic Activation: S-9, Method: STANDARD PLATE) “active; positive”; (Test System: MOUSE LYMPHOMA, Strain/Indicator: L5178Y (TK+/TK-), Metabolic Activation: NONE, Method: SUSPENSION/PLATE) “active; positive”; (Test System: MOUSE LYMPHOMA, Strain/Indicator: L5178Y (TK+/TK-), Metabolic Activation: RAT, LIVER, S-9, AROCLOR 1254, Method: SUSPENSION/PLATE) “active; positive”.
With `CCOC(=O)c1ccc(N(O)C=O)cc1`, the mutagenic call is, setting by setting: under setting [1], “inactive; negative”; under setting [5], “inactive; negative”; under setting [3], “inactive; negative”; under setting [6], “inactive; negative”.
As for `CC(Br)C(=O)Nc1ccccc1` (stereo unspecified), the mutagenic call runs as follows: (Test System: AMES SALMONELLA TYPHIMURIUM, Strain/Indicator: TA100, Metabolic Activation: MOUSE, LIVER, S-9, AROCLOR 1254, Method: STANDARD PLATE) “active; positive”; under setting [3], “inactive; negative”.
In the case of `C1=CC2OC2c2ccc3c4c5c(cccc5cc3c21)C=C4` (stereo unspecified), the mutagenic call by setting is: under setting [1], “inactive; negative”; (Test System: AMES SALMONELLA TYPHIMURIUM, Strain/Indicator: TA98, Metabolic Activation: RAT, LIVER, S-9, AROCLOR 1254 (0.4, 0.8, 1.15 OR 1.5 MG/PLATE), Method: STANDARD PLATE) “active; positive”; under setting [5], “active; positive”.
For the compound `O=[N+]([O-])c1ccc2ccc3cc4c(c5ccc1c2c35)CCC=C4`, the mutagenic call runs as follows: (Test System: AMES SALMONELLA TYPHIMURIUM, Strain/Indicator: TA98 (1,8-DNP6), Metabolic Activation: RAT, LIVER, S-9, AROCLOR 1254, Method: STANDARD PLATE) “active; positive”; (Test System: AMES SALMONELLA TYPHIMURIUM, Strain/Indicator: TA98(NR), Metabolic Activation: RAT, LIVER, S-9, AROCLOR 1254, Method: STANDARD PLATE) “active; positive”; under setting [1], “active; positive”; under setting [5], “active; positive”; under setting [3], “active; positive”; under setting [6], “active; positive”.
With `CC1=C(/C=C/C(C)=C/C=C/C(C)=C/C=C/C=C(C)/C=C/C=C(C)/C=C/C2=C(C)CCCC2(C)C)C(C)(C)CCC1`, the mutagenic call is, setting by setting: (End Point: IN VITRO CHROMOSOMAL ABERRATIONS, Test System: F344 FEMALE RAT HEPATOCYTE, Metabolic Activation: NONE) “active; positive”; (End Point: IN VITRO MICRONUCLEUS, Test System: F344 FEMALE RAT HEPATOCYTES, Metabolic Activation: NONE) “active; positive”; (Test System: AMES SALMONELLA TYPHIMURIUM, Strain/Indicator: TA97, Metabolic Activation: NONE, Method: PREINCUBATION) “inactive; negative”; (Test System: AMES SALMONELLA TYPHIMURIUM, Strain/Indicator: TA97, Metabolic Activation: S-9, Method: PREINCUBATION) “inactive; negative”; under setting [1], “inactive; negative”; under setting [5], “inactive; negative”. The mutagenic call is “inactive; negative” under setting [3]; “inactive; negative” under setting [6]; “inactive; negative” (Test System: AMES SALMONELLA TYPHIMURIUM, Strain/Indicator: TA102, Metabolic Activation: NONE, Method: PREINCUBATION); “inactive; negative” (Test System: AMES SALMONELLA TYPHIMURIUM, Strain/Indicator: TA102, Metabolic Activation: S-9, Method: PREINCUBATION).

Values taken from PubChem BioAssay AID1259407 (Chemical Carcinogenesis Research Information System (CCRIS), 2018).
